# According to patent US20210393791A1, “COMBINATION TREATMENT WITH ANTI-CD123 ANTIBODY DRUG CONJUGATE AND PARP INHIBITOR” (Health Research, Inc., priority 2018, published 2021):
# What was measured:
# [1] = test system: human AML cell lines; test: AML cell line viability, WST-8 colorimetric assay; assay type: cell-based; details: 120 h, continuous single agent 5-day treatment, read-out: IC50, in vitro inhibition of AML cell line growth
# Protocol: CD123 expression on human AML cell lines (HEL, HL60, MV411, Molm13, EOL-1, THP-1, and Kasumi-1) was quantified by flow cytometry using QuantriBrite beads. […] Cell viability was measured using a WST-8 colorimetric assay. Primary clinically annotated CD123+AML cells from patients with relapsed/refractory disease were obtained under IRB-approved protocols from the Roswell Park (Buffalo, N.Y.) Hematologic Procurement Shared Resource and cultured short-term in the presence of multiple cytokines plus IMGN632+/−PARP inhibitors. Apoptosis (Annexin V/PI), cell cycle, and DNA damage (H2AX) were evaluated by flow cytometry. Additive vs. synergistic effects were determined by combination indices using Compusyn software. PARP trapping was evaluated by Western blot analysis in nuclear lysates obtained from IMGN632+/−PARP inhibitors treated AML cells.
# [2] = test system: primary CD123+ AML cells from patients with relapsed/refractory disease; test: Short-term culture of primary relapsed/refractory AML patient samples; assay type: cell-based, human; details: single agent, in vitro
# Protocol: CD123 expression on human AML cell lines (HEL, HL60, MV411, Molm13, EOL-1, THP-1, and Kasumi-1) was quantified by flow cytometry using QuantriBrite beads. AML cells were continuously cultured for 72-96 hours with varying doses of IMGN632 (range 100 pM-100 nM) and specific PARP inhibitors (range 100 pM-15 μM) alone and in combination. Cell viability was measured using a WST-8 colorimetric assay. Primary clinically annotated CD123+AML cells from patients with relapsed/refractory disease were obtained under IRB-approved protocols from the Roswell Park (Buffalo, N.Y.) Hematologic Procurement Shared Resource and cultured short-term in the presence of multiple cytokines plus IMGN632+/−PARP inhibitors. Apoptosis (Annexin V/PI), cell cycle, and DNA damage (H2AX) were evaluated by flow cytometry. Additive vs. synergistic effects were determined by combination indices using Compusyn software. PARP trapping was evaluated by Western blot analysis in nuclear lysates obtained from IMGN632+/−PARP inhibitors treated AML cells.
# [3] = test system: preclinical AML models; details: Portwood S et al, ASH 2016; cited from earlier work
Compound,IC50 [1] [µM],activity against primary relapsed/refractory AML patient samples [2],effect on activity of the CD33-targeted ADC IMGN779 [3]
C[C@]1(c2nc3c(C(N)=O)cccc3[nH]2)CCCN1 [veliparib],78,,
IMGN632,,single agent activity,
O=C(c1cc(Cc2n[nH]c(=O)c3ccccc23)ccc1F)N1CCN(C(=O)C2CC2)CC1 [olaparib],,single agent activity,synergistically enhance
Cn1ncnc1[C@H]1c2n[nH]c(=O)c3cc(F)cc(c23)N[C@@H]1c1ccc(F)cc1 [talazoparib],0.36,single agent activity,
